In the NIST ThermoML archive (doi:10.1021/je700032n):
“And” between values parts separate entries of the source, which are not always exact repeats. Equal entries are not always repeated. ± gives the expanded uncertainty stated by the source.

Details: Liquid; for viscosity: Falling or rolling sphere viscometry; for mass density: 101.33 kPa, Vibrating tube method

CCCC[n+]1ccn(C)c1.O=S(=O)([N-]S(=O)(=O)C(F)(F)F)C(F)(F)F
Details | viscosity
273.15 K, 100 kPa | 191.3 ± 10 mPa·s and 191.6 ± 10 mPa·s
278.15 K, 100 kPa | 140.4 ± 6.6 mPa·s
283.15 K, 100 kPa | 106.1 ± 4.4 mPa·s
283.15 K, 24300 kPa | 146.8 ± 6.9 mPa·s
283.15 K, 49900 kPa | 205.8 ± 11 mPa·s
283.15 K, 74100 kPa | 280.3 ± 18 mPa·s
288.15 K, 100 kPa | 81.6 ± 3 mPa·s
293.15 K, 100 kPa | 63.8 ± 2.2 mPa·s and 63.9 ± 2.2 mPa·s
298.15 K, 100 kPa | 50.9 ± 1.7 mPa·s and 51 ± 1.7 mPa·s and 51.1 ± 1.7 mPa·s
298.15 K, 24300 kPa | 68.1 ± 2.3 mPa·s
298.15 K, 49300 kPa | 90.9 ± 3.4 mPa·s
298.15 K, 76900 kPa | 124 ± 5.4 mPa·s
298.15 K, 101500 kPa | 161.5 ± 7.8 mPa·s
298.15 K, 126400 kPa | 210.3 ± 12 mPa·s
298.15 K, 150200 kPa | 269.4 ± 17 mPa·s
303.15 K, 100 kPa | 41.5 ± 1.4 mPa·s
313.15 K, 100 kPa | 28.5 ± 1 mPa·s
323.15 K, 100 kPa | 20.5 ± 0.7 mPa·s and 20.6 ± 0.7 mPa·s and 20.7 ± 0.7 mPa·s
323.15 K, 26400 kPa | 26.9 ± 0.9 mPa·s
323.15 K, 35600 kPa | 29.2 ± 1 mPa·s
323.15 K, 52000 kPa | 34.6 ± 1.2 mPa·s
323.15 K, 53900 kPa | 34.8 ± 1.2 mPa·s
323.15 K, 69800 kPa | 40.2 ± 1.4 mPa·s
323.15 K, 75000 kPa | 41.6 ± 1.5 mPa·s
323.15 K, 101600 kPa | 53.9 ± 2.3 mPa·s
323.15 K, 103600 kPa | 54.4 ± 2.3 mPa·s
323.15 K, 123600 kPa | 64.3 ± 2.2 mPa·s
323.15 K, 152800 kPa | 83.6 ± 3.1 mPa·s
323.15 K, 200300 kPa | 123.2 ± 5.3 mPa·s
323.15 K, 226000 kPa | 151.2 ± 7.1 mPa·s
323.15 K, 249600 kPa | 183.2 ± 9.4 mPa·s
333.15 K, 100 kPa | 15.4 ± 0.5 mPa·s and 15.5 ± 0.5 mPa·s
343.15 K, 100 kPa | 12 ± 0.4 mPa·s
348.15 K, 100 kPa | 10.6 ± 0.4 mPa·s and 10.7 ± 0.4 mPa·s
348.15 K, 800 kPa | 10.7 ± 0.4 mPa·s
348.15 K, 25700 kPa | 13.4 ± 0.5 mPa·s
348.15 K, 50700 kPa | 16.4 ± 0.6 mPa·s
348.15 K, 75600 kPa | 19.9 ± 0.7 mPa·s
348.15 K, 100900 kPa | 24.2 ± 0.8 mPa·s
348.15 K, 125500 kPa | 29 ± 1 mPa·s
348.15 K, 150600 kPa | 34.6 ± 1.2 mPa·s
348.15 K, 175400 kPa | 40.9 ± 1.4 mPa·s
348.15 K, 175600 kPa | 41 ± 1.4 mPa·s
348.15 K, 200600 kPa | 48.6 ± 1.7 mPa·s
348.15 K, 225400 kPa | 57.4 ± 2 mPa·s
348.15 K, 249700 kPa | 67.3 ± 2.4 mPa·s
348.15 K, 274500 kPa | 79 ± 2.9 mPa·s
348.15 K, 298900 kPa | 92.6 ± 3.6 mPa·s
353.15 K, 100 kPa | 9.53 ± 0.32 mPa·s

Details | mass density
273.15 K | 1460.67 ± 12 kg/m3
278.15 K | 1455.84 ± 12 kg/m3
283.15 K | 1451.04 ± 12 kg/m3
288.15 K | 1446.23 ± 11 kg/m3
293.15 K | 1441.43 ± 11 kg/m3 and 1441.42 ± 11 kg/m3
298.15 K | 1436.64 ± 11 kg/m3 and 1436.6 ± 11 kg/m3
303.15 K | 1431.86 ± 11 kg/m3
313.15 K | 1422.34 ± 11 kg/m3
323.15 K | 1412.87 ± 11 kg/m3 and 1412.85 ± 11 kg/m3
333.15 K | 1403.48 ± 11 kg/m3
343.15 K | 1394.15 ± 11 kg/m3
353.15 K | 1384.88 ± 10 kg/m3
363.15 K | 1375.67 ± 10 kg/m3

CCCCCCn1cc[n+](C)c1.F[P-](F)(F)(F)(F)F [1-hexyl-3-methylimidazolium hexafluorophosphate]
Details | viscosity
273.15 K, 100 kPa | 3924 ± 590 mPa·s
278.15 K, 100 kPa | 2428 ± 330 mPa·s
283.15 K, 100 kPa | 1566 ± 190 mPa·s and 1565 ± 190 mPa·s
288.15 K, 100 kPa | 1036 ± 110 mPa·s and 1035 ± 110 mPa·s
293.15 K, 100 kPa | 705.1 ± 66 mPa·s
298.15 K, 100 kPa | 496.4 ± 41 mPa·s and 496.5 ± 41 mPa·s
298.15 K, 22000 kPa | 685.3 ± 63 mPa·s
298.15 K, 42100 kPa | 917.7 ± 93 mPa·s
298.15 K, 60300 kPa | 1190 ± 130 mPa·s
298.15 K, 80300 kPa | 1572 ± 190 mPa·s
298.15 K, 100100 kPa | 2064 ± 260 mPa·s
303.15 K, 100 kPa | 356.9 ± 26 mPa·s and 356.8 ± 26 mPa·s
313.15 K, 100 kPa | 197 ± 11 mPa·s
313.15 K, 400 kPa | 197.3 ± 11 mPa·s
313.15 K, 25700 kPa | 276.7 ± 18 mPa·s
313.15 K, 50800 kPa | 381.8 ± 28 mPa·s
313.15 K, 76000 kPa | 521.9 ± 44 mPa·s
313.15 K, 101400 kPa | 708.3 ± 67 mPa·s
313.15 K, 125200 kPa | 939.3 ± 96 mPa·s
313.15 K, 150000 kPa | 1254 ± 140 mPa·s
323.15 K, 100 kPa | 119.2 ± 5.1 mPa·s and 117 ± 5 mPa·s
323.15 K, 7600 kPa | 118.3 ± 5 mPa·s
323.15 K, 25800 kPa | 161.7 ± 8.1 mPa·s
323.15 K, 50600 kPa | 217.1 ± 12 mPa·s
323.15 K, 76000 kPa | 290.7 ± 19 mPa·s
323.15 K, 100900 kPa | 384 ± 29 mPa·s
323.15 K, 125800 kPa | 503.9 ± 42 mPa·s
323.15 K, 150100 kPa | 655 ± 59 mPa·s
323.15 K, 174800 kPa | 850.1 ± 84 mPa·s
333.15 K, 100 kPa | 75.2 ± 2.7 mPa·s and 74.4 ± 2.6 mPa·s
333.15 K, 40500 kPa | 118.5 ± 5 mPa·s
333.15 K, 80800 kPa | 182.8 ± 9.5 mPa·s
333.15 K, 120800 kPa | 275.7 ± 18 mPa·s
333.15 K, 160600 kPa | 408.7 ± 31 mPa·s
333.15 K, 200100 kPa | 598.9 ± 52 mPa·s
343.15 K, 100 kPa | 49.7 ± 1.7 mPa·s
348.15 K, 100 kPa | 41.3 ± 1.4 mPa·s
348.15 K, 800 kPa | 41.9 ± 1.4 mPa·s
348.15 K, 40700 kPa | 63.7 ± 2.2 mPa·s
348.15 K, 80800 kPa | 94.2 ± 3.7 mPa·s
348.15 K, 120700 kPa | 136.4 ± 6.3 mPa·s
348.15 K, 160600 kPa | 194.8 ± 11 mPa·s
348.15 K, 200200 kPa | 274.5 ± 18 mPa·s
348.15 K, 238500 kPa | 378 ± 28 mPa·s
353.15 K, 100 kPa | 34.8 ± 1.2 mPa·s

Details | mass density
273.15 K | 1313.39 ± 9.4 kg/m3
278.15 K | 1309.33 ± 9.3 kg/m3
283.15 K | 1305.29 ± 9.3 kg/m3
288.15 K | 1301.26 ± 9.2 kg/m3
293.15 K | 1297.24 ± 9.2 kg/m3
298.15 K | 1293.22 ± 9.1 kg/m3
303.15 K | 1289.21 ± 9.1 kg/m3
313.15 K | 1281.17 ± 8.9 kg/m3
323.15 K | 1273.44 ± 8.8 kg/m3
333.15 K | 1265.69 ± 8.7 kg/m3 and 1265.68 ± 8.7 kg/m3
343.15 K | 1257.96 ± 8.6 kg/m3
353.15 K | 1250.28 ± 8.5 kg/m3
363.15 K | 1242.64 ± 8.4 kg/m3
